This note sets out measurements from PubChem BioAssay (NCI).

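Grown in 96-well plates, cells were treated for 48 hours with each compound at five concentrations. Insufficient inhibition: endpoint recorded as highest concentration tested. Here, GI50 denotes the concentration required for 50% inhibition of growth. Definition used: TGI = concentration required for complete inhibition of growth.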

What is called GI50 is the concentration at which growth is held to half of that of the control. The term TGI denotes the concentration giving total growth inhibition.

Some test systems named below: ACHN renal; CCRF-CEM leukemia; EKVX NSCLC; K-562 leukemia; MCF7 breast; OVCAR-5 ovarian; SF-295 CNS; T-47D breast; UACC-257 melanoma; UO-31 renal.
Common to all, as to test: DTP human tumour cell line panel, 48 h

For `CCOC(=O)c1c2c(n3ccc(NC(=O)CCN4CCCCC4)cc13)C(=O)c1ncccc1C2=O`, the GI50 is less than 10 nM with ACHN renal; 1180 nM in the test on CCRF-CEM leukemia; 3030 nM in the test with EKVX NSCLC; 117 nM with K-562 leukemia; less than 10 nM in the test on MCF7 breast; 1380 nM with OVCAR-5 ovarian. Moreover, the GI50 is 121 nM in the test with SF-295 CNS, 8 µM with T-47D breast, 2450 nM with UACC-257 melanoma and 31.5 nM with UO-31 renal. Besides, the total growth inhibition concentration (TGI) amounted to 1510 nM in the test with ACHN renal; 3.68 µM in the test with CCRF-CEM leukemia; 8.47 µM in the test with EKVX NSCLC; 2570 nM with K-562 leukemia; 1950 nM with MCF7 breast; 3.2 µM in the test on OVCAR-5 ovarian. The TGI with SF-295 CNS amounted to 1920 nM; with T-47D breast, 30200 nM; in the test on UACC-257 melanoma, 7990 nM; in the test on UO-31 renal it was 1460 nM.
Regarding `COc1cc2c(cc1O)c(=O)n(CCN(C)C)c1c3cc4c(cc3ncc21)OCO4`, the GI50 was less than 10 nM in the test with ACHN renal; less than 10 nM in the test with CCRF-CEM leukemia; 239 nM with EKVX NSCLC; 19 nM with K-562 leukemia; less than 10 nM in the test on MCF7 breast; 325 nM in the test on OVCAR-5 ovarian. Moreover, the GI50 is 51.7 nM in the test with SF-295 CNS, less than 0.01 µM with T-47D breast, 45.1 nM with UACC-257 melanoma and less than 12.4 nM in the test with UO-31 renal. Besides, the TGI was 46.4 nM in the test on ACHN renal; more than 26.8 µM in the test on CCRF-CEM leukemia; 3.66 µM in the test on EKVX NSCLC; more than 100000 nM in the test with K-562 leukemia; 1620 nM in the test on MCF7 breast; 2.82 µM in the test on OVCAR-5 ovarian. The TGI worked out at 4020 nM with SF-295 CNS, 63.1 nM in the test with T-47D breast, 285 nM in the test with UACC-257 melanoma and 170 nM in the test with UO-31 renal.
`COc1cc(NS(C)(=O)=O)ccc1Cc1c2ccccc2nc2ccccc12`: the GI50 is 46.3 nM in the test on ACHN renal; 42 nM in the test on CCRF-CEM leukemia; 993 nM in the test with EKVX NSCLC; 307 nM in the test on K-562 leukemia; 51.7 nM with MCF7 breast; 1030 nM with OVCAR-5 ovarian. The GI50 is 47.5 nM in the test with SF-295 CNS, 0.0535 µM in the test with T-47D breast, 493 nM in the test on UACC-257 melanoma and 126 nM in the test on UO-31 renal. In addition, the TGI amounted to 1110 nM in the test on ACHN renal; 0.751 µM with CCRF-CEM leukemia; 4.24 µM with EKVX NSCLC; 2400 nM in the test with K-562 leukemia; 5000 nM with MCF7 breast; 4.17 µM in the test with OVCAR-5 ovarian. For the same molecule, the TGI in the test with SF-295 CNS was 1220 nM; in the test with T-47D breast, 1370 nM; in the test with UACC-257 melanoma it was 2670 nM; in the test with UO-31 renal, 1020 nM.
Take `CC(C)=Cc1cccc2[nH]c(O)c(N=Nc3ccc(S(N)(=O)=O)cc3)c12`: the GI50 is 2090 nM in the test with ACHN renal; 1230 nM in the test on CCRF-CEM leukemia; more than 25000 nM in the test with EKVX NSCLC; 3690 nM in the test with K-562 leukemia; 1040 nM with MCF7 breast; more than 25000 nM with OVCAR-5 ovarian. In addition, the GI50 in the test with SF-295 CNS was 3400 nM; in the test on T-47D breast, more than 25 µM; in the test on UACC-257 melanoma, more than 25000 nM; in the test on UO-31 renal, more than 25000 nM. In addition, the TGI was more than 25000 nM with ACHN renal; more than 25 µM in the test on CCRF-CEM leukemia; more than 25 µM in the test on EKVX NSCLC; more than 25000 nM in the test on K-562 leukemia; more than 25000 nM in the test on MCF7 breast; more than 25 µM in the test on OVCAR-5 ovarian. Also, the TGI in the test on SF-295 CNS, with T-47D breast, with UACC-257 melanoma and in the test on UO-31 renal was more than 25000 nM each time.
